Assay results from ChEMBL document CHEMBL3585288, “Synthesis, characterization and evaluation of the substituent effect on the amoebicide activity of new hydrazone derivatives” (Medchemcomm, 2014).

Test system: Entamoeba histolytica
Assay: Amoebicidal activity against trophozoite stage of Entamoeba histolytica HM-1:IMSS assessed as growth inhibition after 72 hrs by carboxyfluorescein diacetate/propidium iodide staining-based fluorescence microscopic analysis
Assay type: functional, organism-based

For C(=N\N=C\c1ccccc1)/c1ccccc1, which IC50 is on record?
Its IC50 is 96 µM.

O=[N+]([O-])c1ccc(-c2ccc(/C=N/Nc3ccccc3)o2)cc1 was tested. Which IC50 did it give?
Its IC50 is 0.98 µM.

With O=C(/C(=N/N=C(/C(=O)c1ccccc1)c1ccccc1)c1ccccc1)c1ccccc1 as the molecule, how does the IC50 read?
The IC50 was 18 µM.

With O=[N+]([O-])c1ccc(-c2ccc(/C=N/N=C/c3ccc(-c4ccc([N+](=O)[O-])cc4)o3)o2)cc1 as the molecule, how does the IC50 read?
Its IC50 is 13 µM.

C(=N\N(c1ccccc1)c1ccccc1)/c1cccs1 was tested. Which IC50 did it give?
Its IC50 is 7.6 µM.

With O=[N+]([O-])c1ccc(-c2ccc(/C=N/N(c3ccccc3)c3ccccc3)o2)cc1 as the molecule, how does the IC50 read?
Its IC50 is 16 µM.

Which IC50 does the source give for O=[N+]([O-])c1cccc(/C=N/N(c2ccccc2)c2ccccc2)c1 here?
Its IC50 is 19 µM.

With C(=N\Nc1ccccc1)/c1ccco1 as the molecule, how does the IC50 read?
The IC50 was 120 µM.

For C(=N\N(c1ccccc1)c1ccccc1)/c1ccccc1, which IC50 is on record?
The IC50 was 78 µM.

Which IC50 does the source give for Cc1ncc([N+](=O)[O-])n1CCO [METRONIDAZOLE] here?
The IC50 was 6.8 µM.

Test system: Entamoeba histolytica
Assay: Potency index, ratio of metronidazole IC50 to compound IC50 for trophozoite stage of Entamoeba histolytica HM-1:IMSS
Assay type: functional

How did the “Ratio IC50” value turn out when O=[N+]([O-])c1ccc(-c2ccc(/C=N/Nc3ccccc3)o2)cc1 was run?
The value was 7.
